# Reference: patent publication US11081236B2, “Diagnostic and therapeutic methods for the treatment of breast cancer” (GENENTECH, INC., priority 2018, dated 2021)
# Experiments:
# Assay type in all cases: cell-based
# MDA-MB-330 = experiment: RNA sequencing after E2 or DMSO treatment, MDA-MB-330
# Description: (§1) To derive a transcriptional signature of ER pathway activity, RNA sequencing was performed on seven breast cancer cell lines following treatment with either DMSO or 1 μM estradiol (E2) for 24 hours. Briefly, RNA libraries for cell lines were made with TRUSEQ® RNA sample preparation kit (ILLUMINA®) according to the manufacturer's protocol. The libraries were sequenced on an ILLUMINA® Hi Seq 2000, using 1-4 lanes per cell line. RNA sequencing (RNA-seq) data were analyzed with HTSeqGenie (R package version 3.14.0) in BioConductor (Huber et al. Nature Methods. 112:115-21, 2015) as follows: reads were trimmed to 75 base pairs (bp), filtered for quality and rRNA/adapter contamination, and aligned to the reference genome GRCh38 using GSNAP (Wu et al. Bioinforma Oxf Engl. 26:873-81, 2010). Gene expression was quantified as Reads per Kilobase of exon model per Million mapped reads normalized by size factor (nRPKM), defined as number of reads aligning to a gene in a sample/(total number of uniquely mapped reads for that sample x gene length x size factor). Genes without gene symbol and genes of uncertain function (LOC and Corf symbols) were excluded.
# HCC1500 = experiment: RNA sequencing after E2 or DMSO treatment, HCC1500
# Description: as §1
# MCF7 = experiment: RNA sequencing after E2 or DMSO treatment, MCF7
# Description: as §1
# EFM19 = experiment: RNA sequencing after E2 or DMSO treatment, EFM19
# Description: as §1
# [1] = gene BAMBI, 1 μM E2 24 hours vs DMSO
# [2] = gene BCAS1, 1 μM E2 24 hours vs DMSO
# [3] = gene CCNG2, 1 μM E2 24 hours vs DMSO
# [4] = gene DDEE4, 1 μM E2 24 hours vs DMSO
# [5] = gene EGLN3, 1 μM E2 24 hours vs DMSO
# [6] = gene FAM1718, 1 μM E2 24 hours vs DMSO
# [7] = gene GRM4, 1 μM E2 24 hours vs DMSO
# [8] = gene IL1R1, 1 μM E2 24 hours vs DMSO
# [9] = gene LIPH, 1 μM E2 24 hours vs DMSO
# [10] = gene NBEA, 1 μM E2 24 hours vs DMSO
# [11] = gene PNPLA7, 1 μM E2 24 hours vs DMSO
# [12] = gene PSCA, 1 μM E2 24 hours vs DMSO
# [13] = gene SEMASE, 1 μM E2 24 hours vs DMSO
# [14] = gene SSPO, 1 μM E2 24 hours vs DMSO
# [15] = gene STON1, 1 μM E2 24 hours vs DMSO
# [16] = gene TGFB3, 1 μM E2 24 hours vs DMSO
# [17] = gene TP53INP1, 1 μM E2 24 hours vs DMSO
# [18] = gene TP53INP2, 1 μM E2 24 hours vs DMSO
smiles,measurement,setting,value
"C[C@]12CC[C@@H]3c4ccc(O)cc4CC[C@H]3[C@@H]1CC[C@@H]2O [Compound E2, estradiol]",Log2 FC E2 vs no E2: BAMBI,MDA-MB-330; [1],−1.352
same,Log2 FC E2 vs no E2: BCAS1,MDA-MB-330; [2],−1.772
same,Log2 FC E2 vs no E2: CCNG2,MDA-MB-330; [3],−1.009
same,Log2 FC E2 vs no E2: DDEE4,MDA-MB-330; [4],−1.321
same,Log2 FC E2 vs no E2: EGLN3,MDA-MB-330; [5],−2.785
same,Log2 FC E2 vs no E2: FAM1718,MDA-MB-330; [6],−2.790
same,Log2 FC E2 vs no E2: GRM4,MDA-MB-330; [7],−2.281
same,Log2 FC E2 vs no E2: IL1R1,MDA-MB-330; [8],−0.941
same,Log2 FC E2 vs no E2: LIPH,MDA-MB-330; [9],−1.737
same,Log2 FC E2 vs no E2: NBEA,MDA-MB-330; [10],−1.044
same,Log2 FC E2 vs no E2: PNPLA7,MDA-MB-330; [11],−1.084
same,Log2 FC E2 vs no E2: PSCA,MDA-MB-330; [12],−2.529
same,Log2 FC E2 vs no E2: SEMASE,MDA-MB-330; [13],−2.427
same,Log2 FC E2 vs no E2: SSPO,MDA-MB-330; [14],−1.383
same,Log2 FC E2 vs no E2: STON1,MDA-MB-330; [15],−1.081
same,Log2 FC E2 vs no E2: TGFB3,MDA-MB-330; [16],−1.111
same,Log2 FC E2 vs no E2: TP53INP1,MDA-MB-330; [17],−1.304
same,Log2 FC E2 vs no E2: TP53INP2,MDA-MB-330; [18],−1.210
same,Log2 FC E2 vs no E2: BAMBI,HCC1500; [1],−1.438
same,Log2 FC E2 vs no E2: BCAS1,HCC1500; [2],−2.105
same,Log2 FC E2 vs no E2: CCNG2,HCC1500; [3],−1.525
same,Log2 FC E2 vs no E2: DDEE4,HCC1500; [4],−1.865
same,Log2 FC E2 vs no E2: EGLN3,HCC1500; [5],−2.504
same,Log2 FC E2 vs no E2: FAM1718,HCC1500; [6],−0.683
same,Log2 FC E2 vs no E2: GRM4,HCC1500; [7],−1.071
same,Log2 FC E2 vs no E2: IL1R1,HCC1500; [8],−1.943
same,Log2 FC E2 vs no E2: LIPH,HCC1500; [9],−1.384
same,Log2 FC E2 vs no E2: NBEA,HCC1500; [10],−1.190
same,Log2 FC E2 vs no E2: PNPLA7,HCC1500; [11],−1.376
same,Log2 FC E2 vs no E2: PSCA,HCC1500; [12],−1.726
same,Log2 FC E2 vs no E2: SEMASE,HCC1500; [13],−1.058
same,Log2 FC E2 vs no E2: SSPO,HCC1500; [14],−1.304
same,Log2 FC E2 vs no E2: STON1,HCC1500; [15],−1.279
same,Log2 FC E2 vs no E2: TGFB3,HCC1500; [16],−1.214
same,Log2 FC E2 vs no E2: TP53INP1,HCC1500; [17],−1.777
same,Log2 FC E2 vs no E2: TP53INP2,HCC1500; [18],−1.073
same,Log2 FC E2 vs no E2: BAMBI,MCF7; [1],−0.571
same,Log2 FC E2 vs no E2: BCAS1,MCF7; [2],−0.981
same,Log2 FC E2 vs no E2: CCNG2,MCF7; [3],−1.267
same,Log2 FC E2 vs no E2: DDEE4,MCF7; [4],−1.080
same,Log2 FC E2 vs no E2: EGLN3,MCF7; [5],−1.090
same,Log2 FC E2 vs no E2: FAM1718,MCF7; [6],−1.287
same,Log2 FC E2 vs no E2: GRM4,MCF7; [7],−1.106
same,Log2 FC E2 vs no E2: IL1R1,MCF7; [8],−2.160
same,Log2 FC E2 vs no E2: LIPH,MCF7; [9],−1.170
same,Log2 FC E2 vs no E2: NBEA,MCF7; [10],−1.132
same,Log2 FC E2 vs no E2: PNPLA7,MCF7; [11],−1.046
same,Log2 FC E2 vs no E2: PSCA,MCF7; [12],−2.199
same,Log2 FC E2 vs no E2: SEMASE,MCF7; [13],−1.034
same,Log2 FC E2 vs no E2: SSPO,MCF7; [14],−1.338
same,Log2 FC E2 vs no E2: STON1,MCF7; [15],−2.067
same,Log2 FC E2 vs no E2: TGFB3,MCF7; [16],−1.707
same,Log2 FC E2 vs no E2: TP53INP1,MCF7; [17],−1.816
same,Log2 FC E2 vs no E2: TP53INP2,MCF7; [18],−1.207
same,Log2 FC E2 vs no E2: BAMBI,EFM19; [1],−1.554
same,Log2 FC E2 vs no E2: BCAS1,EFM19; [2],−2.189
same,Log2 FC E2 vs no E2: CCNG2,EFM19; [3],−1.442
same,Log2 FC E2 vs no E2: DDEE4,EFM19; [4],−1.101
same,Log2 FC E2 vs no E2: EGLN3,EFM19; [5],−1.008
same,Log2 FC E2 vs no E2: FAM1718,EFM19; [6],−1.910
same,Log2 FC E2 vs no E2: GRM4,EFM19; [7],−1.141
same,Log2 FC E2 vs no E2: IL1R1,EFM19; [8],−2.327
same,Log2 FC E2 vs no E2: LIPH,EFM19; [9],−1.844
